Where “and” joins values, the source holds several entries; their conditions need not be identical. Identical values can stand only once. Counter-ions that a name gives are not always drawn.
System: mature rabbits suffering from septicemia induced by Escherichia coli, complicated by RDS
Assay type: in vivo, rabbit
Experimental: Specifically, 32 rabbits in the abovedescribed morbid state were divided into 4 groups including one control (or no-treatment) group. […] Then, all groups were comparatively examined for the degree of improvement in respiratory function. The morbid rabbits were prepared and the degree of lung injury was evaluated according to the methods of Cuevas et al. (Archives of Surgery, 104, 319, 1972), and the circulating titer of endotoxin in blood was determined according to the method of Reinhold et al. (Proceedings of the Society for Experimental Biology and Medicine, 137, 334, 1971). The treatment with the material of the invention and/or kanamycin sulfate was carried out within 24 hours before and after the onset of RDS. The material of the invention was instilled 1-6 times into the airway in a dose of 50-100 mg/kg for each treatment, while 80-150 mg/kg of kanamycin sulfate was intramuscularly injected in 2-8 divided doses. Two days after treatment, the subjects were examined for survival and the degree of lung injury. […] The degree of lung injury becomes severer as the value increases.

NC[C@H]1O[C@H](O[C@H]2[C@H](O)[C@@H](O[C@H]3O[C@H](CO)[C@@H](O)[C@H](N)[C@H]3O)[C@H](N)C[C@@H]2N)[C@H](O)[C@@H](O)[C@@H]1O [kanamycin sulfate]
Circulating titer (endotoxin in blood) (individual animals (one line per subject)): 0.10 µg/mL and 0.01 µg/mL and 0.00 µg/mL and 0.40 µg/mL and 0.02 µg/mL | Survival (individual animals, two days after treatment): No and Yes | Degree of lung injury (individual animals, two days after treatment, severer as the value increases): 3 and 0 and 1 and 2

From patent publication US4397839A, “Surface active material and process for preparing same” (Tokyo Tanabe Company, Limited, priority 1981, dated 1983)
